Laboratory results as given in patent US9155726B2, “Method of treatment using checkpoint kinase 1 inhibitors” (ARRAY BIOPHARMA INC., priority 2009, dated 2015).
Like-named read-outs stand apart in the source and are kept apart here.

Legend:
[1] = system: subcutaneous HT-29 xenografts; test: TGI/tolerability experiment, CPT11 with simultaneous or 24 hour delayed Compound 1 (Example 3); assay type: in vivo, nude mice; conditions: single agents: CPT11 100 mg/kg IP single dose; Compound 1 50 mg/kg PO BID 3 days
Method: Female nude mice were inoculated subcutaneously with 5×10^6 HT-29 tumor cells in 1×PBS (100 μL). Twelve days later, mice were randomized into groups of 6 with an average tumor volume in each group of approximately 250 mm^3. […] Tumor size and animal body weight were measured over the course of the study on the days indicated with data points in FIG. 5. Tumor volume was calculated using the formula: volume=(width^2×length)/2.

[2] = Tolerability of CPT11 with Compound 2 started 12, 24 or 48 hours post CPT11 (Example 4); assay type: in vivo, nude mice; conditions: single agents: CPT11 100 mg/kg IP Q10Dx2; Compound 2 25 mg/kg PO BID 3 days per cycle; naive mice
[3] = system: subcutaneous HT-29 xenografts; conditions: mouse, in vivo, ip, 100 mg/kg
Method: Female nude mice were inoculated subcutaneously with 5×10^6 HT-29 tumor cells in 1×PBS (100 μL). Fourteen days later, mice were randomized into groups of 8 with an average tumor volume in each group of approximately 260 mm^3. […] Tumor size and animal body weight were measured over the course of the study on the days indicated with data points in FIG. 12. Tumor volume was calculated using the formula: volume=(width^2×length)/2.

[4] = system: subcutaneous HT-29 xenografts; test: TGI experiment, CPT11 with Compound 5 (Example 12); assay type: in vivo
Method: Female nude mice were inoculated subcutaneously with 4×10^6 HT-29 tumor cells in 1×PBS (100 μL). Twelve days later, mice were randomized into groups of 7 with an average tumor volume in each group of approximately 200 mm^3. […] Tumor size and animal body weight were measured over the course of the study on the days indicated with data points in FIG. 13. Tumor volume was calculated using the formula: volume=(width^2×length)/2. No mortalities occurred over the course of this study.

Phosphorylation of cdc2 [5] = test: Inhibition of CPT11 induced phosphorylation of cdc2 in HT-29 tumors, immunoblot (Example 6); assay type: in vivo, nude mice; conditions: 3 consecutive days BID versus single dose, 25 mg/kg PO, from 24 hours after CPT11 100 mg/kg
Method: Female nude mice were inoculated subcutaneously with 5×10^6 HT-29 tumor cells in 1×PBS (100 μL). Twenty four days later, mice were randomized into groups of 3 with an average tumor volume in each group of approximately 450 mm^3. […] Compound 2 was given as a single dose, or alternatively for 3 consecutive days on a BID schedule. All tumors from animals dosed with Compound 2 were harvested 2 hours post dose. Phosphorylation of cdc2 was assessed by immunoblot and normalized to total ERK expression. Results are expressed as POC.

[6] = system: subcutaneous HT-29 xenografts; test: TGI experiment, CPT11 with Compound 2 for 1 or 3 days (Example 5); assay type: in vivo; conditions: single agents: CPT11 100 mg/kg IP Q10Dx2; Compound 2 25 mg/kg PO BID
Method: Female nude mice were inoculated subcutaneously with 5×10^6 HT-29 tumor cells in 1×PBS (100 μL). Twelve days later, mice were randomized into groups of 8 with an average tumor volume in each group of approximately 215 mm^3. […] Tumor size and animal body weight were measured over the course of the study on the days indicated with data points in FIG. 6. Tumor volume was calculated using the formula: volume=(width^2×length)/2. No mortalities occurred over the course of this study.

[7] = Compound 2 exposure after single dose or 3 days dosing (Example 6); assay type: in vivo, nude mice; conditions: 25 mg/kg PO, from 24 hours after CPT11 100 mg/kg; t-test>0.05
Phosphorylation of cdc2 [8] = test: Inhibition of CPT11 induced phosphorylation of cdc2 in HT-29 tumors, immunoblot (Example 7); assay type: in vivo, nude mice; conditions: 5, 10 or 25 mg/kg PO BID 3 consecutive days from 24 hours after CPT11 100 mg/kg; HT-29 tumors harvested 96 hours post CPT11
Method: Female nude mice were inoculated subcutaneously with 5×10^6 HT-29 tumor cells in 1×PBS (100 μL). Twenty nine days later, mice were randomized into groups of 3 with an average tumor volume in each group of approximately 500 mm^3. […] Compound 5 was given as a single dose at 25 mg/kg, or alternatively 5, 10, or 25 mg/kg doses were given for 3 consecutive days on BID schedules. […] Phosphorylation of cdc2 was assessed by immunoblot and normalized to total ERK expression. Results are expressed as POC.

[9] = single agents: CPT11 100 mg/kg IP Q10Dx2, Compound 5 PO BID (dose of single-agent group not given)

Compound: CCc1c2c(nc3ccc(OC(=O)N4CCC(N5CCCCC5)CC4)cc13)-c1cc3c(c(=O)n1C2)COC(=O)[C@]3(O)CC [CPT11, irinotecan]
- % Mortality [1]: 0%
- % Mortality [2]: 0%
- Day of Maximum % Body Weight Loss [2]: 14 days
- Maximum % Body Weight Loss [2]: 3.4%
- Maximum % Body Weight Loss [3]: 0.08%
- Day of Maximum % Body Weight Loss ([4]; mouse, in vivo, 100 mg/kg): 18 days
- Maximum % Body Weight Loss ([4]; mouse, in vivo, 100 mg/kg): 6.3%

Compound: N[C@@H]1CCCN(c2c(Br)cnc3[nH]cc(NC(=O)c4cccnc4)c23)C1 [Compound 1, (R)—N-(4-(3-aminopiperidin-1-yl)-5-bromo-1H-pyrrolo[2,3-b]pyridin-3-yl)nicotinamide]
- Inhibition of CPT11 induced phospho-cdc2 with extended dosing (Phosphorylation of cdc2 [5]): Superior Inhibition

Compound: CC(C)C(=O)Nc1c[nH]c2ncc(Br)c(N3CCC[C@@H](N)C3)c12 [Compound 2, (R)—N-(4-(3-aminopiperidin-1-yl)-5-bromo-1H-pyrrolo[2,3-b]pyridin-3-yl)isobutyramide]
- Day of Maximum % Body Weight Loss [2]: 17 days
- Maximum % Body Weight Loss [2]: 0.3%
- Day of Maximum % Body Weight Loss [6]: 3 days
- Maximum % Body Weight Loss [6]: 7.2%
- Compound 2 exposure, single dose versus administration for 3 days [7]: not statistically different

Compound: N[C@@H]1CCCN(c2c(Br)cnc3[nH]cc(NC(=O)C4CC4)c23)C1 [Compound 5, (R)—N-(4-(3-aminopiperidin-1-yl)-5-bromo-1H-pyrrolo[2,3-b]pyridin-3-yl)cyclopropanecarboxamide]
- Day of Maximum % Body Weight Loss [4, 9]: 18 days
- Maximum % Body Weight Loss [4, 9]: 2.5%
- Inhibition of CPT11 induced phospho-cdc2 with extended dosing (Phosphorylation of cdc2 [8]): Dose-Related Inhibition
